From US20110250454A1, “PREPARATION OF NEBIVOLOL” (priority 2010, published 2011)
Counter-ions that a name gives are not always drawn.

Experiments:
[1] = Particle size distribution (laser diffraction, Malvern instrument); format: physicochemical; conditions: Hydrochloride; for particle size distribution D10: 10 volume percent of particles smaller than value; for particle size distribution D50: 50 volume percent of particles smaller than value; for particle size distribution D90: 90 volume percent of particles smaller than value
From the text: The D10, D50, and D90 values are useful ways for indicating particle size distributions. D90 refers to at least 90 volume percent of the particles having a size smaller than the given value. Likewise, D10 refers to 10 volume percent of the particles having a size smaller than the given value. D50 refers to 50 volume percent of the particles having a size smaller than the given value. Methods for determining D10, D50, and D90 include laser diffraction, such as using equipment from Malvern Instruments Ltd. of Malvern, Worcestershire, United Kingdom.

[2] = natural crystalline form, not micronized; cited from earlier work
[3] = natural crystalline form, not micronized; cited from earlier work; remark: listed apart in the source
[4] = Specific surface area (BET); format: physicochemical; conditions: BET stated for Example 8; Hydrochloride

| particle size distribution D10 [1] [μm] | particle size distribution D50 [1] [μm] | particle size distribution D90 [1] [μm] | Specific surface area [4] [m^2/g] | SMILES | dissolution rate [2] | bioavailability [3] |
| --- | --- | --- | --- | --- | --- | --- |
| 1.314 | 3.363 | 7.80 | – | OC(CNCC(O)C1CCc2cc(F)ccc2O1)C1CCc2cc(F)ccc2O1 (stereo not shown) [Example 54, Nebivolol Hydrochloride] | – | – |
| 1.43 | 3.52 | 9.35 | – | OC(CNCC(O)C1CCc2cc(F)ccc2O1)C1CCc2cc(F)ccc2O1 (stereo not shown) [Example 60, Nebivolol Hydrochloride] | – | – |
| 2.37 | 6.29 | 25.76 | – | OC(CNCC(O)C1CCc2cc(F)ccc2O1)C1CCc2cc(F)ccc2O1 (stereo not shown) [Example 55, Nebivolol Hydrochloride] | – | – |
| 1.87 | 4.46 | 11.72 | – | OC(CNCC(O)C1CCc2cc(F)ccc2O1)C1CCc2cc(F)ccc2O1 (stereo not shown) [Example 53, Nebivolol Hydrochloride] | – | – |
| 1.23 | 3.17 | 10.75 | 3.68 | OC(CNCC(O)C1CCc2cc(F)ccc2O1)C1CCc2cc(F)ccc2O1 (stereo not shown) [Example 56, Nebivolol Hydrochloride] | – | – |

Continued, compound first:

| SMILES | particle size distribution D10 [1] [μm] | particle size distribution D50 [1] [μm] | particle size distribution D90 [1] [μm] | Specific surface area [4] [m^2/g] | dissolution rate [2] | bioavailability [3] |
| --- | --- | --- | --- | --- | --- | --- |
| OC(CNCC(O)C1CCc2cc(F)ccc2O1)C1CCc2cc(F)ccc2O1 (stereo not drawn) [nebivolol hydrochloride, (1RS,1′RS)-1,1′-[(2RS,2′SR)-bis(6-fluoro-3,4-dihydro-2H-1-benzopyran-2-yl)]-2,2′-iminodiethanol] | – | – | – | – | poor | poor |
| OC(CNCC(O)C1CCc2cc(F)ccc2O1)C1CCc2cc(F)ccc2O1 (stereo not shown) [Example 8, Nebivolol Hydrochloride] | 3.94 | 19.1 | 48.4 | 1.2580 | – | – |
| OC(CNCC(O)C1CCc2cc(F)ccc2O1)C1CCc2cc(F)ccc2O1 (stereo not shown) [Example 52, Nebivolol Hydrochloride] | 1.753 | 4.571 | 15.180 | – | – | – |
